Measured values published in US9688637B2, “3-amidobenzamides and uses thereof for increasing cellular levels of A3G and other A3 family members” (Northwestern University, priority 2014, dated 2017).

Legend:
[1] = tested on: Wild-type HIV-1; assay: A3G-mediated restriction of wild-type HIV-1; virus from 293T stably expressing A3G, TZM-bl readout; format: cell-based; details: Human immunodeficiency virus 1, HEK-293T, read-out: A3G-mediated Restriction by Compounds on Wild-type HIV-1 (% of HIV replication relative to DMSO treated Control)
Description: To test the effect of compounds shown to boost A3G-Luc levels in our screening systems on inhibition of wild-type HIV-1 replication by A3G or A3F, 293T cell lines stably expressing A3G or A3F were plated (750,000 cells per well in 6-well plate). At 24 hrs post plating, 1.5 μg of a wild-type (Vif-positive) HIV-1 proviral vector, NL4.3, was transfected into the 293T stable cell lines expressing either A3G or A3F. At 4 hrs post transfection, either DMSO as a control or an individual compound from series described below was added into the culture medium at a 10 μM concentration. At 1 day post transfection, supernatant fluids containing viral particles were filtered through […] filter to remove cellular debris. To test the effect of compound on HIV-1 replication, TZM-bl indicator cells were plated at a density of 10,000 cells/well in a 96 well culture plate 24 hrs prior to infection. TZM-bl indicator cells express luciferase gene under the control of HIV LTR promoter and are routinely used to measure HIV-1 replication capability. On the day of infection, the culture medium was removed and the cells inoculated with equal amount of HIV-1 particles in triplicate with 100 μl of viral supernatants in culture medium containing 20 μg/ml DEAE-dextran. After 24 hrs of incubation, culture medium was removed from each well and replaced with 100 μl of Britelite Plus luciferase assay substrate. Following 5 min. of incubation at room temperature, 75 μl of each cell lysate was transferred to a 96-well OptiPlate 96 and luminescence was measured in a VICTOR X2 Multilabel Reader as described above. Relative infectivity was calculated by plotting luciferase activity from viral particle from DMSO treated A3G or A3F cell lines as 100%. We only tested effect A3F- or A3G mediated restriction of HIV-1 replication by compounds boosting luciferase activity by more than 160% compared to DMSO control sample.

[2] = tested on: HIV NL4-3; assay: Infectivity of virions from 293T co-transfected with NL4-3 and A3G, TZM-bl cells; format: cell-based, HIV-1; details: co-transfection of 293T with HIV NL4-3 and A3G (FIG. 8)
Description: FIG. 8. 293T cells were co-transfected with […] of NL4.3 plasmid DNA and 400 ng of either control or A3F/G DNAs, with or without NU52. Infectivity of equal amounts of resulting viruses (normalized by HIV-1 p24 antigen) were measured using TZM-bl cells. NU-52 treatment of producer cell reduced infectivity of virus produced from those cells.

[3] = tested on: HEK293; assay: Cancer cell death, cell numbers vs DMSO; format: cell-based, human; details: 6 μM, 16 days; embryonic kidney cell line lacking A3B, wild-type functional p53
Excerpt: (§1) To test the effect of the compounds described below on cancer cell death, cell lines derived from different types of cancer were studied in vitro. MCF10A, MCF7, T47D, MDA-MB-157 and MDA-MB-231 are breast cancer cell lines. NHPrE, BHPrE, RWPE1, DU145, and PC3 cells are prostate cell lines. HeLa is cervical cancer cell line. HEK293 is human embryonic kidney cell line lacking A3B expression. There are differences among these cancer cell lines in p53 expression (44-46). MCF10A, MCF7, NHPrE, BHPrE and HEK293 cells have wild-type and functional p53. RWPE1 and HeLa cells have wild-type p53 but the p53 protein in these cell line is not functional because of effects of human papilloma virus E6 protein. T47D, MDA-MB-231, and DU145 cell lines have mutant p53, while MDA-MB-157 and PC3 cells have no p53 expression. 25,000 cells per well were plated in 6 well plates. In the case of HEK293 cells. 500,000 cells per well in 6-well plates were used instead. After 24 hrs, culture medium was replaced with new medium containing either DMSO as control or one of the compounds described below (6 μM per well concentration). After 8 days incubation with compounds, cell numbers were counted from each well and plotted with number of cells from DMSO treated sample as 100%. We performed the experiments at least twice. HEK293, MCF7 and T47D cells they were maintained for 16 days with compounds instead of 8 days.

[4] = tested on: RWPE1; assay: Cancer cell death, cell numbers vs DMSO; format: cell-based; details: 6 μM, 8 days; prostate cell line, p53 not functional
Excerpt: as §1

[5] = tested on: MDA-MB-157; assay: Cancer cell death, cell numbers vs DMSO; format: cell-based; details: 6 μM, 8 days; breast cancer cell line, no p53 expression
Excerpt: as §1

[6] = tested on: MDA-MB-231; assay: Cancer cell death, cell numbers vs DMSO; format: cell-based; details: 6 μM, 8 days; breast cancer cell line, mutant p53
Excerpt: as §1

[7] = tested on: PC3; assay: Cancer cell death, cell numbers vs DMSO; format: cell-based; details: 6 μM, 8 days; prostate cell line, no p53 expression
Excerpt: as §1

[8] = tested on: MCF7; assay: Cancer cell death, cell numbers vs DMSO; format: cell-based; details: 6 μM, 16 days; breast cancer cell line, wild-type functional p53
Excerpt: as §1

[9] = tested on: NHPrE; assay: Cancer cell death, cell numbers vs DMSO; format: cell-based; details: 6 μM, 8 days; prostate cell line, wild-type functional p53
Excerpt: as §1

[10] = tested on: BHPrE; assay: Cancer cell death, cell numbers vs DMSO; format: cell-based; details: 6 μM, 8 days; prostate cell line, wild-type functional p53
Excerpt: as §1

[11] = tested on: T47D; assay: Cancer cell death, cell numbers vs DMSO; format: cell-based; details: 6 μM, 16 days; breast cancer cell line, mutant p53
Excerpt: as §1

[12] = tested on: HeLa; assay: Cancer cell death, cell numbers vs DMSO; format: cell-based; details: 6 μM, 8 days; cervical cancer cell line, p53 not functional
Excerpt: as §1

[13] = tested on: MCF10A; assay: Cancer cell death, cell numbers vs DMSO; format: cell-based; details: 6 μM, 8 days; breast cell line, wild-type functional p53
Excerpt: as §1

[14] = tested on: DU145; assay: Cancer cell death, cell numbers vs DMSO; format: cell-based; details: 6 μM, 8 days; prostate cell line, mutant p53
Excerpt: as §1

[15] = tested on: 293T cells; assay: Cellular cytotoxicity by counting cells after 48 hrs with compound vs DMSO; format: cell-based; details: concentration at which cell death was seen; 48 hrs
Description: To screen compounds that can boost A3G levels, 293T cells (25,000 cells per well in 96-well plate) stably expressing A3G-Luc protein or A3G-Luc/Vif proteins were plated. After 24 hrs post plating culture medium was replaced with 100 μl of new medium containing either DMSO as a control or various compounds (10 μM concentration). After 48 hrs of incubation with compounds culture medium was removed from each well and replaced with 100 μl of Britelite Plus luciferase assay substrate (PerkinElmer). Following 5 min. of incubation at room temperature, 75 μl of each cell lysate was transferred to a 96-well OptiPlate 96 (PerkinElmer) and luminescence was measured in a VICTOR X2 Multilabel Reader (PerkinElmer). Relative activity of compounds for their boosting capability A3G-Luc activity was calculated by plotting DMSO-treated A3G-Luc or A3G-Luc/Vif cells as 100%. Cellular cytotoxicity was measured by counting number of cells after 48 hrs of incubation with compounds compared to DMSO treated cells.

SMILES | activity at 10 µM [1] | infectivity of virions [2] | cell killing (cell numbers vs DMSO) [3] | cell killing (cell numbers vs DMSO) [4] | cell killing (cell numbers vs DMSO) [5] | cell killing (cell numbers vs DMSO) [6] | cell killing (cell numbers vs DMSO) [7] | cell killing (cell numbers vs DMSO) [8] | cell killing (cell numbers vs DMSO) [9] | cell killing (cell numbers vs DMSO) [10] | cell killing (cell numbers vs DMSO) [11] | cell killing (cell numbers vs DMSO) [12] | cell killing (cell numbers vs DMSO) [13] | cell killing (cell numbers vs DMSO) [14] | Cytotoxicity: Cell Death at [15]
COc1ccc(C(=O)Nc2ccc(Cl)c(Cl)c2)cc1NC(=O)C(C)C [NU-52] | 57% | decreased infectivity | not killed | kill | kill | kill | kill | not killed | not killed | not killed | kill | kill | not killed | kill | Cell Death at 30 μM
COc1ccc(C(=O)Nc2ccc(Cl)c(Cl)c2)cc1NC(=O)CC1CC1 [NU-466] | 72% |  | not killed | kill | kill | kill | kill | not killed | not killed | not killed | kill | kill | not killed | kill | 
COc1ccc(C(=O)Nc2ccc(Cl)c(Cl)c2)cc1NC(=O)C1CCC1 [NU-302] | 60% |  | not killed | kill | kill | kill | kill | not killed | not killed | not killed | kill | kill | not killed | kill | 
